Measured values from ChEMBL document CHEMBL1201862, “PubChem BioAssay data set” (2004).
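1) Cells in 96-well plates. 2) Compound, 48 h, 5 concentrations. 3) Linear interpolation between surrounding doses. 4) Unreached endpoint = highest concentration. At the GI50, growth is halved.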 The source made the active and inactive calls. No stated cut-off is given here; in the data, active = GI50 up to about 1.1 µM and inactive = higher. Peptide text beside a SMILES is read from it.

Tests used:
Assay in all cases: NCI tumour cell line growth inhibition, 48 h
A549 = tested on: A549
U-251 = tested on: U-251
HCT-116 = tested on: HCT-116
ACHN = tested on: ACHN
Malme-3M = tested on: Malme-3M
HOP-62 = tested on: HOP-62
NCI-H522 = tested on: NCI-H522
KM12 = tested on: KM12
DU-145 = tested on: DU-145
NCI/ADR-RES = tested on: NCI/ADR-RES
EKVX = tested on: EKVX
HCC 2998 = tested on: HCC 2998
UACC-257 = tested on: UACC-257
HOP-92 = tested on: HOP-92
PC-3 = tested on: PC-3
OVCAR-3 = tested on: OVCAR-3
IGROV-1 = tested on: IGROV-1
BT-549 = tested on: BT-549
SK-MEL-2 = tested on: SK-MEL-2
SK-MEL-28 = tested on: SK-MEL-28
TK-10 = tested on: TK-10
RPMI-8226 = tested on: RPMI-8226
SF-539 = tested on: SF-539
SW-620 = tested on: SW-620
COLO 205 = tested on: COLO 205
LOX IMVI = tested on: LOX IMVI
SR = tested on: SR
NCI-H460 = tested on: NCI-H460
K562 = tested on: K562
OVCAR-8 = tested on: OVCAR-8
NCI-H226 = tested on: NCI-H226
SK-OV-3 = tested on: SK-OV-3
MOLT-4 = tested on: MOLT-4
UACC-62 = tested on: UACC-62
CAKI-1 = tested on: CAKI-1
OVCAR-5 = tested on: OVCAR-5
786-0 = tested on: 786-0
SK-MEL-5 = tested on: SK-MEL-5
M14 = tested on: M14
T47D = tested on: T47D
MDA-N = tested on: MDA-N
MDA-MB-435 = tested on: MDA-MB-435
SN12C = tested on: SN12C
RXF 393 = tested on: RXF 393
NCI-H23 = tested on: NCI-H23
OVCAR-4 = tested on: OVCAR-4
SF-295 = tested on: SF-295
MCF7 = tested on: MCF7
SNB-19 = tested on: SNB-19
Hs-578T = tested on: Hs-578T
MDA-MB-231 = tested on: MDA-MB-231
HL-60 = tested on: HL-60
UO-31 = tested on: UO-31
HCT-15 = tested on: HCT-15
HT-29 = tested on: HT-29
SNB-75 = tested on: SNB-75
SF-268 = tested on: SF-268
CCRF-CEM = tested on: CCRF-CEM
A498 = tested on: A498

SMILES: CCC(C)C(NC(=O)C(NC(=O)C(CC(N)=O)NC(=O)CN)C(C)O)C(=O)NC(C(=O)NC(C)C(=O)NC(C(=O)NC(CCC(=O)O)C(=O)NC(CC(C)C)C(=O)NC(CC(=O)O)C(=O)NC(C(=O)NC(Cc1ccc(O)cc1)C(=O)N1CCCC1C(=O)O)C(C)O)C(C)C)C(C)C (stereo not given) (H-GNTIVAVELDTYP-OH; configuration not given here)
- GI50 (A549): > 50 µM (inactive)
- GI50 (U-251): > 50 µM (inactive)
- GI50 (HCT-116): > 50 µM (inactive)
- GI50 (ACHN): > 50 µM (inactive)
- GI50 (Malme-3M): > 50 µM (inactive)
- GI50 (HOP-62): > 50 µM (inactive)
- GI50 (NCI-H522): > 50 µM (inactive)
- GI50 (KM12): > 50 µM (inactive)
- GI50 (DU-145): > 50 µM (inactive)
- GI50 (NCI/ADR-RES): > 50 µM (inactive)
- GI50 (EKVX): > 50 µM (inactive)
- GI50 (HCC 2998): > 50 µM (inactive)
- GI50 (UACC-257): > 50 µM (inactive)
- GI50 (HOP-92): > 50 µM (inactive)
- GI50 (PC-3): > 50 µM (inactive)
- GI50 (OVCAR-3): > 50 µM (inactive)
- GI50 (IGROV-1): > 50 µM (inactive)
- GI50 (BT-549): > 50 µM (inactive)
- GI50 (SK-MEL-2): > 50 µM (inactive)
- GI50 (SK-MEL-28): > 50 µM (inactive)
- GI50 (TK-10): > 50 µM (inactive)
- GI50 (RPMI-8226): > 50 µM (inactive)
- GI50 (SF-539): > 50 µM (inactive)
- GI50 (SW-620): > 50 µM (inactive)
- GI50 (COLO 205): > 50 µM (inactive)
- GI50 (LOX IMVI): > 50 µM (inactive)
- GI50 (SR): > 50 µM (inactive)
- GI50 (NCI-H460): > 50 µM (inactive)
- GI50 (K562): > 50 µM (inactive)
- GI50 (OVCAR-8): > 50 µM (inactive)
- GI50 (NCI-H226): > 50 µM (inactive)
- GI50 (SK-OV-3): > 50 µM (inactive)
- GI50 (MOLT-4): > 50 µM (inactive)
- GI50 (UACC-62): > 50 µM (inactive)
- GI50 (CAKI-1): > 50 µM (inactive)
- GI50 (OVCAR-5): > 50 µM (inactive)
- GI50 (786-0): > 50 µM (inactive)
- GI50 (SK-MEL-5): > 50 µM (inactive)
- GI50 (M14): > 50 µM (inactive)
- GI50 (T47D): > 50 µM (inactive)
- GI50 (MDA-N): > 50 µM (inactive)
- GI50 (MDA-MB-435): > 50 µM (inactive)
- GI50 (SN12C): > 50 µM (inactive)
- GI50 (RXF 393): > 50 µM (inactive)
- GI50 (NCI-H23): > 50 µM (inactive)
- GI50 (OVCAR-4): > 50 µM (inactive)
- GI50 (SF-295): > 50 µM (inactive)
- GI50 (MCF7): > 50 µM (inactive)
- GI50 (SNB-19): > 50 µM (inactive)
- GI50 (Hs-578T): > 50 µM (inactive)
- GI50 (MDA-MB-231): 18.9 µM (inactive)
- GI50 (HL-60): > 50 µM (inactive)
- GI50 (UO-31): > 50 µM (inactive)
- GI50 (HCT-15): > 50 µM
- GI50 (HT-29): > 50 µM (inactive)
- GI50 (SNB-75): > 50 µM (inactive)
- GI50 (SF-268): > 50 µM (inactive)
- GI50 (CCRF-CEM): > 50 µM (inactive)

SMILES: CC(=O)Oc1ccccc1-c1cc2ccccc2oc1=O
- GI50 (A549): > 100 µM (inactive)
- GI50 (HCT-116): > 100 µM (inactive)
- GI50 (ACHN): > 100 µM (inactive)
- GI50 (Malme-3M): > 100 µM (inactive)
- GI50 (HOP-62): > 100 µM (inactive)
- GI50 (NCI-H522): 61.1 µM (inactive)
- GI50 (KM12): > 100 µM (inactive)
- GI50 (DU-145): > 100 µM (inactive)
- GI50 (NCI/ADR-RES): 76.9 µM (inactive)
- GI50 (EKVX): 63.5 µM (inactive)
- GI50 (HCC 2998): > 100 µM (inactive)
- GI50 (UACC-257): > 100 µM (inactive)
- GI50 (PC-3): > 100 µM (inactive)
- GI50 (OVCAR-3): 22.4 µM (inactive)
- GI50 (BT-549): > 100 µM (inactive)
- GI50 (SK-MEL-2): > 100 µM (inactive)
- GI50 (SK-MEL-28): > 100 µM (inactive)
- GI50 (RPMI-8226): > 100 µM (inactive)
- GI50 (SF-539): > 100 µM (inactive)
- GI50 (SW-620): > 100 µM (inactive)
- GI50 (COLO 205): > 100 µM (inactive)
- GI50 (LOX IMVI): > 100 µM (inactive)
- GI50 (SR): > 100 µM (inactive)
- GI50 (NCI-H460): > 100 µM (inactive)
- GI50 (K562): > 100 µM (inactive)
- GI50 (OVCAR-8): > 100 µM (inactive)
- GI50 (NCI-H226): 31 µM (inactive)
- GI50 (MOLT-4): > 100 µM (inactive)
- GI50 (OVCAR-5): > 100 µM (inactive)
- GI50 (786-0): > 100 µM (inactive)
- GI50 (M14): > 100 µM (inactive)
- GI50 (T47D): 97.7 µM (inactive)
- GI50 (MDA-N): > 100 µM (inactive)
- GI50 (MDA-MB-435): > 100 µM (inactive)
- GI50 (SN12C): > 100 µM (inactive)
- GI50 (NCI-H23): 83.8 µM (inactive)
- GI50 (SF-295): 91.2 µM (inactive)
- GI50 (MCF7): > 100 µM (inactive)
- GI50 (A498): > 100 µM (inactive)
- GI50 (SNB-19): > 100 µM (inactive)
- GI50 (Hs-578T): > 100 µM (inactive)
- GI50 (MDA-MB-231): > 100 µM (inactive)
- GI50 (HL-60): > 100 µM (inactive)
- GI50 (UO-31): 46.8 µM (inactive)
- GI50 (HCT-15): > 100 µM
- GI50 (HT-29): > 100 µM (inactive)
- GI50 (SNB-75): 32.8 µM (inactive)
- GI50 (SF-268): > 100 µM (inactive)
- GI50 (CCRF-CEM): > 100 µM (inactive)

SMILES: Cc1c(C#N)c(N)n(C2OCC(O)C(O)C2O)c(=S)c1C#N (stereo not given)
- GI50 (A549): > 100 µM (inactive)
- GI50 (ACHN): > 100 µM (inactive)
- GI50 (Malme-3M): > 100 µM (inactive)
- GI50 (HOP-62): > 100 µM (inactive)
- GI50 (NCI-H522): > 100 µM (inactive)
- GI50 (KM12): > 100 µM (inactive)
- GI50 (DU-145): > 100 µM (inactive)
- GI50 (NCI/ADR-RES): > 100 µM (inactive)
- GI50 (HCC 2998): > 100 µM (inactive)
- GI50 (UACC-257): > 100 µM (inactive)
- GI50 (PC-3): > 100 µM (inactive)
- GI50 (OVCAR-3): > 100 µM (inactive)
- GI50 (IGROV-1): > 100 µM (inactive)
- GI50 (BT-549): > 100 µM (inactive)
- GI50 (SK-MEL-2): 21.4 µM (inactive)
- GI50 (SK-MEL-28): > 100 µM (inactive)
- GI50 (TK-10): > 100 µM (inactive)
- GI50 (RPMI-8226): > 100 µM (inactive)
- GI50 (SF-539): > 100 µM (inactive)
- GI50 (SW-620): > 100 µM (inactive)
- GI50 (LOX IMVI): > 100 µM (inactive)
- GI50 (SR): > 100 µM (inactive)
- GI50 (NCI-H460): > 100 µM (inactive)
- GI50 (K562): > 100 µM (inactive)
- GI50 (OVCAR-8): > 100 µM (inactive)
- GI50 (NCI-H226): > 100 µM (inactive)
- GI50 (SK-OV-3): > 100 µM (inactive)
- GI50 (MOLT-4): > 100 µM (inactive)
- GI50 (UACC-62): > 100 µM (inactive)
- GI50 (CAKI-1): > 100 µM (inactive)
- GI50 (OVCAR-5): > 100 µM (inactive)
- GI50 (786-0): > 100 µM (inactive)
- GI50 (SK-MEL-5): > 100 µM (inactive)
- GI50 (M14): > 100 µM (inactive)
- GI50 (T47D): > 100 µM (inactive)
- GI50 (MDA-N): > 100 µM (inactive)
- GI50 (MDA-MB-435): > 100 µM (inactive)
- GI50 (SN12C): > 100 µM (inactive)
- GI50 (RXF 393): > 100 µM (inactive)
- GI50 (NCI-H23): > 100 µM (inactive)
- GI50 (SF-295): > 100 µM (inactive)
- GI50 (MCF7): > 100 µM (inactive)
- GI50 (A498): > 100 µM (inactive)
- GI50 (SNB-19): > 100 µM (inactive)
- GI50 (Hs-578T): 24.5 µM (inactive)
- GI50 (MDA-MB-231): > 100 µM (inactive)
- GI50 (HL-60): > 100 µM (inactive)
- GI50 (UO-31): > 100 µM (inactive)
- GI50 (HCT-15): > 100 µM
- GI50 (HT-29): > 100 µM (inactive)
- GI50 (SNB-75): 83.4 µM (inactive)
- GI50 (SF-268): > 100 µM (inactive)
- GI50 (CCRF-CEM): > 100 µM (inactive)
